Assay results: patent US20260364101A1, “OLEUROPEIN IN THE MANAGEMENT OF CANCER” (FUNDACIÓN MIGUEL SERVET, priority 2023, published 2026)
“Also recorded” adds a separate entry of the source.

What was measured:
LLC cells = test: LLC lung cancer mouse tumor model resistant to immunotherapy; type: in vivo, C57BL/6 mice; settings: for tumor growth: 300 μg oleuropein i.p. every other day for eight days
Protocol: C57BL/6 female mice were subcutaneously (s.c) injected with […] LLC cells or 0.5×10^6 MC38 cells per animal. When tumor growth reached an average diameter of 3.5 mm (day 0), mice received 100 μg of anti-PD-1 mAb (RPMI-14, BioXCell) intraperitoneally (i.p) at days 0, 5, and 13. Control mice received the same volume of saline. For oleuropein, mice received 300 μg oleuropein at days-1, 2, 4, 6, and 8. As negative control, the same volume of saline was injected.
The efficacy of all treatments was evaluated every two days by measuring two perpendicular tumor measurements. The size was calculated using the formula: Size=Length x Width. Mice were humanely sacrificed when tumor size reached ~150 mm^2, or when tumor ulceration or evident discomfort were observed. For rechallenge experiments in the MC38 model, mice that rejected tumors were injected s.c. with 5×10^5 MC38 cells in the left flank three months after the first tumor inoculation. Naïve mice were included as controls and development of tumors was evaluated for two months.
Tumor measurements of in vivo experiments are represented as tumor diameter (mm^2) and plotted either as individual data points for one individual mouse or as mean±SD as indicated in the figure legends. Statistical analysis was performed using one way ANOVA test followed by a Sidak's multiple comparison test at 0.05 level of significance. For in vivo experiments, to compare multiple experimental groups, one-way ANOVA test and Tukey's multiple comparison test were used. Two-tailed Student's t test was applied to compare two experimental groups. Survival of tumor-bearing mice is represented by Kaplan-Meier plots and analyzed by log-rank test. The p values <0.05 were considered statistically significant.
To test antitumor capacities in vivo, LLC cells were implanted subcutaneously into groups of mice and tumors were allowed to grow to an average diameter of approximately […]. This model was chosen because LCC cells are poorly immunogenic and notoriously refractory to PD-L1/PD-1 blockade. Oleuropein was then administered intraperitoneally every other day for eight days.
To address whether oleuropein could be combined with anti-PD1 immunotherapy to treat LCC-derived tumors, anti-PD1 mAb was systemically administered in combination with intraperitoneal injection of oleuropein. As controls, groups of mice treated with each of the agents singly and saline-treated groups were included.

CD4 T cells = test: mixed lymphocyte reaction (MLR) with TAMs as stimulator cells (FIG. 1c,d); type: cell-based, mouse; settings: treated TAMs as stimulators; 5 days
Protocol: MLR were carried out following standard procedures. Briefly, 100,000 MDSCs or TAMs from C57BL/6 mice were co-cultured in 96-well plates with 100,000 lymphocytes from BALB/c mice. Co-cultured cells were treated with 50 µM oleuropein and compared with control vehicle. After 5 days, T-lymphocyte activation, differentiation and proliferation were assessed by flow cytometry. T-cell activation and proliferation markers (Ki-67) and pro-inflammatory cytokine production (IL-2 and IFNγ) were evaluated by flow cytometry in CD4 and CD8 T cells as described before.
Surface and intracellular staining were carried out as described before with the following fluorochrome-conjugated antibody clones: AF488 anti-CD49d (R1-2), PE anti-CD4 (GK1.5), APCanti-CD8(53-6.7), brilliant Violet 510™ anti-I-A/I-E (M5/114.15.2,PE/Cyanine7anti-Ly-6G (1A8), and APC anti-CD80 (16-10A1) (Biolegend), FITC anti-IL-12 (C15.6) and BV421 anti-IL-2 (JES6-5H4) (BD Bioscience), APC-Vio® 770 anti-Ly-6C (REA796), PE REAfinity™ anti-F4/80 (REA126), and APC anti-CD68 (REA886) (Miltenyi), PerCP-Cyanine5.5 Anti-Human/Mouse CD11b (M1/70) (Tonbo), and AF488 anti-IFNγ (Clone XMG1.2) (BD Pharmigen). […]

MDSCs = test: morphology of ex vivo MDSC cultures, phase contrast micrographs (FIG. 2a); type: cell-based, mouse; settings: MDSCs treated with oleuropein
Protocol: Immunosuppressive myeloid cell subsets resembling tumor-infiltrating subsets (g-MDSCs, m-MDSCs and TAMs) were differentiated from mouse bone marrow following published procedures using conditioning medium produced by LLC tumor cells stably expressing GMCSF and MCSF cells. g- and m-MDSCs were purified using the myeloid-derived suppressor cell isolation kit (Miltenyi Biotec, Bergisch, Germany) according to manufacturer's recommendations. MDSCs and TAMs were seeded with 500 nM BML-275 or 50 μM oleuropein and incubated for seven days.

[1] = LLC s.c., oleuropein 300 μg i.p. alone or with anti-PD-1 mAb 100 μg i.p.

Structure (SMILES): C/C=C1/[C@H](O[C@@H]2O[C@H](CO)[C@@H](O)[C@H](O)[C@H]2O)OC=C(C(=O)OC)[C@H]1CC(=O)OCCc1ccc(O)c(O)c1 [oleuropein]
- tumor growth (LLC cells; LLC s.c.): significantly delayed tumor growth
- tumor growth (LLC cells; LLC s.c., listed as Oleuropein): delayed tumor growth
- increased survival, time (LLC cells; [1]): up to 20 days
- survival (LLC cells; [1]): significant increase in long-term survival
- survival (LLC cells; LLC s.c., oleuropein 300 μg i.p. alone or with anti-PD-1 mAb 100 μg i.p., listed as Oleuropein): significantly increased survival
- mice responding to the treatment (LLC cells; LLC s.c., oleuropein i.p.): most of the mice responding to the treatment
- improvement of aPD-1 therapies (LLC cells; tumor model intrinsically resistant to PD-1 blockade): improved aPD-1 therapies in a tumor model intrinsically resistant to PD-1 blockade; also recorded: improved aPD-1 and anti-LAG-3 therapies
- CD4 T cell stimulation assessed by IFNγ and IL-2 production (CD4 T cells): potently stimulated
- morphology (MDSCs): acquired a dendritic cell-like morphology
